The text below walks through data of patent US10745352B2, “Dual function molecules for histone deacetylase inhibition and ataxia telangiectasia mutated activation and methods of use thereof” (Shuttle Pharmaceuticals, Inc., priority 2015, dated 2020).

Assay [1] relates to HPV+ CasKi cells vs normal epithelial cells (RWPE1 cells). Nature of the assay: MTT cytotoxicity assay, normal epithelial cells versus HPV+ cervical cancer cells. It counts as cell-based, human. On the procedure:
SP-1-161 was tested in a MTT cytotoxicity assay against normal epithelial cells and human papilloma virus positive (HPV+) cancerous (CasKi) cervical cells. […] This supports the role for the compounds of the invention (e.g., SP-1-161) as treatments of HPV+ cancers and tumors.

The test system of assay [2] is breast cancer cells (MCF7 cells). Nature of the assay: MTT cytotoxicity assay, breast cancer cells. It counts as cell-based. To be noted: Homo sapiens, cell line not named in the sentence (FIG. 9: MCF7 and 184A1). On the procedure:
Certain compounds of the invention were tested in both an MTT cytotoxicity assay and clonogenic cytotoxicity assay against breast cancer cells (MCF7 cells) and normal breast tissue cells (184A1 cells) to determine the cytotoxic effect of such cells as a function of concentration.
Specifically, the compounds tested included: N-(6-(hydroxyamino)-6-oxohexyl)-3-methyl-1H-indole-2-carboxamide (SP-1-161); -hydroxy-N^6-(2-(2-methyl-1H-indol-3-yl)ethyl)octanediamide (SP-1-163); (S)—N-(6-(hydroxyamino)-6-oxohexyl)-1-tosylindoline-2-carboxamide (SP-1-169); and (S)-1-((5-(dimethylamino)naphthalene-1-yl)sulfonyl)-N-(6-(hydroxyamino)-6-oxoheyl)indoline-carboxamide (SP-1-171).

Assay [3] has the same test system. Nature of the assay: Radiation clonogenic survival, breast cancer cells. Format: cell-based. To be noted: compound at IC50 concentration for 24 h, then gamma radiation; compared with DIM. On the procedure:
(§1) N-(6-(hydroxyamino)-6-oxohexyl)-3-methyl-1H-indole-2-carboxamide (SP-1-161) was tested against DIM in a radiation clonogenic survival study with healthy breast epithelial cells (184A1 cells) (FIG. 11A) and breast cancer cells (MCF7 cells) (FIG. 11B). After treatment with the compounds of the invention for 24 hours, the cells were exposed to graded doses of gamma radiation.
(§2) Logarithmically growing cells were seeded into T-25 flasks at various densities to yield approximately 50-100 colonies/flask. After incubation for 24 h at 37° C., cells were treated or not with the compound at the IC50 concentration for 24 h followed by sham or irradiation at room temperature using a Mark-30 irradiator with a 137-Cs source at a fixed dose rate of 2.27 Gy/min. After 10-14 days, cells were fixed and stained with crystal violet, and colonies of more than 50 cells were counted. The surviving fractions of the treated cells were normalized to the plating efficiencies of untreated controls. Radiation survival curves were fitted by computer to the single-hit, multitarget and the linear-quadratic models.
(§3) The radiation sensitivity of cells is defined by the terminal slope of the radiation survival curve, which is referred to as D0. The steeper the slope, the smaller is the value of D0, and thus the more radiation sensitive the respective cells. […]

The subject of assay [4] is normal prostate epithelial (RWPE1) cells vs prostate cancer (PC3) cells. Nature of the assay: MTT cytotoxicity assay, normal prostate epithelial cells versus prostate cancer cells. Format: cell-based. As to the method:
Certain compounds of the invention were tested in an MTT cytotoxicity assay against a breast cancer cell line (MCF7), prostate cancer cell line (PC3), cervical cancer cell line (CasKi), and head and neck cancer cell line (SQ20B). In the breast and prostate cancer MTT assays, certain compounds of the invention were also tested against normal breast (MCF10A) and prostate (RWPE1) epithelial tissues.
Specifically, the compounds tested included SP-1-161, SP-1-229, and SP-1-303. Suberoylanilide hydroxamic acid (SAHA), a known HDAC inhibitor, was also tested in the assay as control.
In general terms: Formazan colour is commonly taken as a measure of viable cells.

Assay [5] has as its system healthy breast epithelial cells (184A1 cells). Nature of the assay: Radiation clonogenic survival, normal breast epithelial cells. It counts as cell-based. To be noted: compound at IC50 concentration for 24 h, then gamma radiation; compared with DIM. As to the method: as §1, §2, §3

As for `Cc1c(C(=O)NCCCCCC(=O)NO)[nH]c2ccccc12` [SP-1-161, N-(6-(hydroxyamino)-6-oxohexyl)-3-methyl-1H-indole-2-carboxamide], in assay [1], the “IC50 for HPV+ CasKi cells, times lower than that for normal epithelial cells (RWPE1 cells)” value is 29 times. Moreover, the IC50 (usually the concentration needed to halve the response being measured) in assay [2] came to 416 nM. Further, the “radiation sensitizing activity in breast cancer cells (MCF7)” value in assay [3] was “demonstrated radiation sensitizing activity and further outperformed DIM”. For the same compound, the “fold less toxic in normal prostate epithelial (RWPE1) cells than in prostate cancer (PC3) cells” value in assay [4] is 15 fold. For the same compound, the “protection of normal cells from radiation (184A1)” value in assay [5] is “protected normal cells from radiation-mediated killing”.
